Results from patent US9434687B2, “Detection of synthetic cannabinoids” (priority 2011, dated 2016).
Structures can show the parent of a compound that is named as a salt. Where two headings read alike, the source gives them in different places.

Columns and labels:
Assay type in all cases: binding, sheep
[1] = tested on: IgG fraction of antiserum raised to Immunogen I
Experimental: (§1) An aqueous solution of each immunogen was formulated with Freund's Complete Adjuvant (FCA) to form an emulsion consisting of 2 mg/ml*immunogen in 50% (v/v) FCA. Three sheep were immunised with this emulsion (1° immunisation), 0.25 ml being intramuscularly injected at each of four sites in the flank of each animal. Subsequent immunizations (boosts) contained 1 mg/ml*immunogen. All boosts were emulsified in 50% (v/v) Freund's Incomplete Adjuvant (FIA) and were administered in the same manner as the 1° immunisation, at monthly intervals. Blood sampling took place 7 to 14 days after each boost. *The general procedure for immunogen administration is outlined above, however, it was necessary to deviate from this protocol in some cases, due to reduced immunogen concentrations (Immunogens II, IV, VII and VIII) and/or amount available (Immunogen VIII). Any deviations from the protocol described are outlined in Table 5 below and highlighted in bold.
(§2) The wells of an enhanced binding 96 well polystyrene microtiter plate were coated with IgG fraction of antiserum raised to Immunogen I or II, diluted in 10 mM Tris, pH8.5 (125 μl/well). The appropriate antibody coating dilution was determined using standard ELISA checkerboard techniques. The plate was incubated overnight at 4° C., washed 4 times over 10 minutes with Tris buffered saline containing Tween 20 (TBST) and tapped dry. Standard solutions (JWH-018 for Immunogens I and II) were applied at 0, 0.625, 1.25, 2.5, 5, 10, 20 and 40 ng/ml and 50 μl of each was added to the appropriate wells. 75 μl of conjugate (appropriate hapten-HRP) diluted in Tris buffer (pH 7.2) containing EDTA, D-mannitol, sucrose, thimerosal and BSA, was added to each of the wells. The appropriate dilution of conjugate was also determined using standard ELISA checkerboard techniques. The plate was incubated at 25° C. for 1 hour. Excess unbound conjugate was removed by washing 6 times over a 10 minute period with TBST. 125 μl of tetramethylbenzidine (TMB) substrate solution was added to each well of the plate that was then incubated for 20 minutes in the dark at room temperature. The reaction was terminated by addition of 125 μl 0.2M H2SO4 to each well. The absorbance was then measured at 450 nm using a microtiter plate reader. The data are inputted to a computer program called ‘KC Junior’. It is a 4 parameter fit curve and allow the calculation of concentrations between the standard runs. This program is used to calculate the IC50s by dividing the 0 ng/ml OD value by 2 and obtaining the concentration value from the curve for this OD.
In a similar manner to that described above, the wells of a 96-well microtiter plate were coated with the IgG fraction of the antiserum raised to Immunogens I or II. Standard solutions (JWH-018 for Immunogen I and II) were applied at 0, 0.625, 1.25, 2.5, 5, 10, 20 and 40 ng/ml and conjugate was employed as detection reagent.
(§3) The data set out in Tables 7-10 are generated using antibodies raised against the indicated Immunogens in a competitive binding assay with the indicated tracers, using the indicated standards
(§4) In order to determine the specificity of the competitive ELISAs, standard solutions of a range of structurally similar synthetic cannabinoids and their metabolites were prepared in TBST.
(§5) Using the calibration curves generated and employing a single level of cross reactants, these were used to determine the cross-reactivity of each immunoassay with these substances. These are the standards used for the IC50 and cross-reactivity data generation: […]

[2] = tested on: IgG fraction of antiserum raised to Immunogen II; assay: Competitive ELISA, antibody RS1833B12 to Immunogen II, tracer ESC4555 (Example 36); details: Antibody to Immunogen II; cross-reactants at 100 ng/ml; 1000 ng/ml; standard JWH-018
Experimental: as §1
as §2, with “The” for “The wells of an enhanced binding 96 well polystyrene microtiter plate were coated with IgG fraction of antiserum raised to Immunogen I or II, diluted in 10 mM Tris, pH8.5 (125 μl/well). The”, “Standard solutions (JWH-018 for Immunogens I and II) were applied at 0, 0.625, 1.25, 2.5, 5, 10, 20 and 40 ng/ml and 50 μl of each was added to the appropriate wells.” left out, “runs.” for “runs. This program is used to calculate the IC50s by dividing the 0 ng/ml OD value by 2 and obtaining the concentration value from the curve for this OD.”
In a similar manner to that described above, the wells of a 96-well microtiter plate were coated with the IgG fraction of the antiserum raised to Immunogens I or II.
as §3, §5

[3] = tested on: IgG fraction of antiserum raised to Immunogen VII
Experimental: as §1, §2
(§6) In a similar manner to that described above, the wells of a 96-well microtiter plate were coated with the IgG fraction of the antiserum raised to Immunogens IV, VII or VIII. Standard solutions (JWH-018 for Immunogens IV and VIII, JWH-015 for Immunogen VII) were prepared in TBST at 0, 1.25, 2.5, 5, 10, 20, 40 and 80 ng/ml and conjugate was employed as detection reagent.
as §3, §4, §5

[4] = tested on: IgG fraction of antiserum raised to Immunogen VIII
Experimental: as §1, §2, §6, §3, §4, §5

[5] = tested on: IgG fraction of antiserum raised to Immunogen IV
Experimental: as §1, §2, §6, §3, §4, §5

[6] = Antibody to Immunogen I, cross-reactants at 100 ng/ml, 1000 ng/ml, standard JWH-018
[7] = Antibody to Immunogen VII, cross-reactants at 100 ng/ml, 1000 ng/ml, standard JWH-015
[8] = Antibody to Immunogen VIII, cross-reactants at 100 ng/ml, 1000 ng/ml, standard JWH-018
[9] = Antibody to Immunogen IV, cross-reactants at 100 ng/ml, 1000 ng/ml, standard JWH-018

Molecule | % B/B0 [1, 6] [%] | % B/B0 [2] [%] | % B/B0 [3, 7] [%] | % B/B0 [4, 8] [%] | % B/B0 [5, 9] [%] | % B/B0 [1] [%] | % B/B0 [3] [%] | % B/B0 [4] [%] | % B/B0 [5] [%]
CC(O)CCCn1cc(C(=O)c2cccc3ccccc23)c2ccccc21 (racemic) [(±)-JWH 018 N-(4-hydroxypentyl) metabolite] | 4.23 | 53.99 | 57.37 | 21.94 | 52.29 | – | – | – | –
CC(F)CCCn1cc(C(=O)c2cccc3ccccc23)c2ccccc21 (single isomer, unassigned) [AM-2201 N-(4-fluoropentyl) isomer] | 3.45 | 14.60 | 52.70 | 15.00 | 5.72 | – | – | – | –
CC(C)C(C)n1cc(C(=O)c2cccc3ccccc23)c2ccccc21 (single isomer, unassigned) [JWH 018 N-(1,2-dimethylpropyl) isomer] | 6.60 | 71.33 | 62.29 | 67.71 | 87.11 | – | – | – | –
CCCCCn1cc(C(=O)Cc2ccccc2Cl)c2ccccc21 [JWH-203] | 72.55 | – | 99.08 | 9.19 | 52.15 | – | – | – | –
CCCCCn1cc(C(=O)Cc2ccc(Cl)cc2)c2ccccc21 [JWH-206, JWH-203 4-chloro isomer] | 75.96 | – | 97.17 | 10.55 | 65.63 | – | – | – | –
CCCCCn1cc(C(=O)c2c(CC)ccc3ccccc23)c2ccccc21 [JWH-210 2-ethylnaphthyl isomer] | 81.37 | – | 96.13 | 73.51 | 53.97 | – | – | – | –
CCCCCn1cc(C(=O)c2ccc(CC)c3ccccc23)c2cc(O)ccc21 [JWH-210 5-hydroxyindole metabolite] | 83.29 | – | 100.43 | 87.72 | 48.91 | – | – | – | –
CCCCCn1cc(C(=O)c2cccc3ccc(CC)cc23)c2ccccc21 [JWH-210 7-ethylnaphthyl isomer] | 73.11 | – | 100.55 | 50.90 | 27.07 | – | – | – | –
CCc1ccc(C(=O)c2cn(CCCCCC(=O)O)c3ccccc23)c2ccccc12 [JWH-210 N-(5-carboxypentyl) metabolite] | 76.77 | – | 96.07 | 96.27 | 85.29 | – | – | – | –
CCCCCn1cc(C(=O)c2ccc(CC)c3ccccc23)c2ccccc21 [JWH-210] | 91.18 | – | 96.62 | 16.87 | 5.53 | – | – | – | –
CCCCCn1cc(C(=O)Cc2ccccc2OC)c2ccccc21 [JWH-250] | 78.94 | – | 97.23 | 9.40 | 41.08 | – | – | – | –
CCCCCn1cc(C(=O)Cc2ccccc2C)c2ccccc21 [JWH-251] | 68.01 | – | 96.74 | 9.12 | 42.02 | – | – | – | –
CCCCCn1cc(C(=O)Cc2cccc(OC)c2)c2ccccc21 [JWH-302] | 84.66 | – | 104.92 | 7.97 | 45.67 | – | – | – | –
CCCCCn1cc(C(=O)c2cccc(OC)c2)c2ccccc21 [RCS-4 3-methoxy isomer] | 31.19 | – | 94.72 | 10.95 | 25.65 | – | – | – | –
COc1ccc(C(=O)c2cn(CCCC(C)O)c3ccccc23)cc1 (stereo not shown) [RCS-4 N-(4-hydroxypentyl) metabolite] | 65.71 | – | 95.72 | 8.89 | 59.16 | – | – | – | –
COc1ccc(C(=O)c2cn(CCCCCC(=O)O)c3ccccc23)cc1 [RCS-4 N-(5-carboxypentyl) metabolite] | 77.12 | – | 94.00 | 91.97 | 91.44 | – | – | – | –
COc1ccc(C(=O)c2cn(CCCCCO)c3ccccc23)cc1 [RCS-4 N-(5-hydroxypentyl) metabolite] | 59.51 | – | 94.55 | 19.13 | 61.03 | – | – | – | –
CCCCn1cc(C(=O)c2ccc(OC)cc2)c2ccccc21 [RCS-4-C4 homologue] | 76.27 | – | 100.20 | 9.54 | 27.17 | – | – | – | –
CCCCCn1cc(C(=O)c2ccc(OC)cc2)c2ccccc21 [RCS-4] | 80.46 | – | 93.51 | 5.93 | 19.21 | – | – | – | –
COc1cccc(CC(=O)c2cn(CCC3CCCCC3)c3ccccc23)c1 [RCS-8 3-methoxy isomer] | 93.24 | – | 93.73 | 83.62 | 89.43 | – | – | – | –
COc1ccc(CC(=O)c2cn(CCC3CCCCC3)c3ccccc23)cc1 [RCS-8 4-methoxy isomer] | 94.94 | – | 98.21 | 100.72 | 90.78 | – | – | – | –
COc1ccccc1CC(=O)c1cn(CCC2CCCCC2)c2ccccc12 [RCS-8] | 82.65 | – | 94.57 | 88.79 | 85.50 | – | – | – | –
NCCc1c[nH]c2ccc(O)cc12 [Serotonin HCl] | 99.65 | – | 99.83 | 100.36 | 95.40 | – | – | – | –
COc1ccc(C(=O)c2c(C)n(CCN3CCOCC3)c3ccccc23)cc1 [WIN-48,098, Pravadoline] | 90.05 | – | 92.41 | 97.90 | 91.64 | – | – | – | –
CS(=O)(=O)O.Cc1c(C(=O)c2cccc3ccccc23)c2cccc3c2n1[C@@H](CN1CCOCC1)CO3 [Win 55,212-3 mesylate] | 34.00 | – | 32.31 | 101.30 | 94.57 | – | – | – | –
(+)-CP 55,940 | 103.25 | – | 97.15 | 95.12 | 91.38 | – | – | – | –
(−)-11-nor-9-Carboxy-delta9-THC | – | – | – | – | – | 100.47 | 98.72 | 103.36 | 93.08
(−)-CP 55,940 | 98.27 | – | 101.15 | 97.58 | 93.02 | – | – | – | –
